Assay type in all cases: nucleic-acid assay
For experiment [1], the system named is microRNA 21. The experiment in a line: Inhibition of Dicer mediated [32P] pre-miRNA-21 (unknown origin) maturation assessed as cleavage of pre-miRNA at 1000 uM after 2.5 hrs by denaturating polyacrylamide gel electrophoresis.
The test system of another experiment is Pre-miRNA-29b. The experiment in a line: Inhibition of Dicer mediated [32P] pre-miRNA-29b-1 (unknown origin) maturation assessed as cleavage of pre-miRNA at 1 mM after 2.5 hrs by denaturating polyacrylamide gel electrophoresis.
For experiment [2], the system named is microRNA 21. In words: Binding affinity to [32P]pre-miRNA-21(unknown origin) assessed as reduction in mobility by electrophoretic mobility shift assay.
Experiment [3] deals with microRNA 21. The experiment in a line: Inhibition of Dicer mediated [32P] pre-miRNA-21 (unknown origin) maturation assessed as cleavage of pre-miRNA at 10 uM after 2.5 hrs by denaturating polyacrylamide gel electrophoresis.
The subject of experiment [4] is microRNA 21. The experiment in a line: Inhibition of Dicer mediated [32P] pre-miRNA-21 (unknown origin) maturation assessed as cleavage of pre-miRNA at 50 uM after 2.5 hrs by denaturating polyacrylamide gel electrophoresis.
Experiment [5] concerns the target microRNA 21. In words: Inhibition of Dicer mediated [32P] pre-miRNA-21 (unknown origin) maturation assessed as cleavage of pre-miRNA after 2.5 hrs by denaturating polyacrylamide gel electrophoresis.
Experiment [6] relates to microRNA 21. The experiment in a line: Inhibition of Dicer mediated [32P] pre-miRNA-21 (unknown origin) maturation assessed as cleavage of pre-miRNA at 1 to 100 uM after 2.5 hrs by denaturating polyacrylamide gel electrophoresis.

Activity calls are given as the source filed them. The rule behind the calls is not given here. Numbered stars: 1 amine (or outer) side, 2 acyl side, 3 side chain; on linkers, the order of the positions; unused ones are H or OH. Square brackets hold non-standard residues; d marks the D form. Peptide text beside a SMILES is read from it. * marks the point of attachment. X6 = O=C1Cc2ccc(OCc3cn(N([C@@H](CS)C(=O)[*:2])[*:1])nn3)cc2C(=O)N1O; X3 = O=C1Cc2ccc(OCc3cn(N(CC(=O)[*:2])[*:1])nn3)cc2C(=O)N1O; X4 = C[C@@H](O)[C@@H](C(=O)[*:2])N(n1cc(CN[*:3])nn1)[*:1]; X7 = O=C([C@H](CS)N(n1cc(CCCC(=O)[*:3])nn1)[*:1])[*:2]; X1 = O=C([C@H](CS)N(n1cc(CN[*:3])nn1)[*:1])[*:2]; X5 = C[C@@H](C(=O)[*:2])N(n1cc(CN[*:3])nn1)[*:1]; X8 = O=C(NCCOCCOCCN*)c1ccc2c(c1)C(=O)N(O)C2=O; X2 = O=C1c2ccc(C(=O)*)cc2C(=O)N1O

As for `C#CCNC(=O)c1ccc2c(c1)C(=O)N(O)C2=O`, the inhibition entry in the experiment on microRNA 21 [1] and in the experiment on Pre-miRNA-29b was “inactive” in each case. `C[C@H](NC(=O)[C@H](CS)NC(=O)[C@H](C)NC(=O)[C@H](C)NC(=O)[C@H](CS)NC(=O)[C@@H](NC(=O)[C@@H](NC(=O)[C@H](C)NC(=O)CNC(=O)[C@H](C)NC(=O)CNC(=O)[C@@H](NC(=O)[C@H](C)NC(=O)[C@H](CS)Nn1cc(CNC(=O)c2ccc3c(c2)C(=O)N(O)C3=O)nn1)[C@@H](C)O)[C@@H](C)O)[C@@H](C)O)C(=O)O` (H-[X1](X2)ATGAGATTCAACA-OH): in the experiment on microRNA 21 [2], the outcome was Active. The inhibition entry in the experiment on microRNA 21 [3] and in the experiment with microRNA 21 [4] was “Active” throughout. For the same compound, the IC50 on microRNA 21 [5] is 4.3 µM.

For `C[C@H](NC(=O)[C@H](CS)NC(=O)[C@H](C)NC(=O)[C@H](C)NC(=O)[C@H](CS)NC(=O)[C@@H](NC(=O)[C@@H](NC(=O)[C@H](C)NC(=O)CNC(=O)[C@H](C)NC(=O)CNn1cc(COc2ccc3c(c2)C(=O)N(O)C(=O)C3)nn1)[C@@H](C)O)[C@@H](C)O)C(=O)O` (H-[X3]AGATTCAACA-OH), at microRNA 21 [5], the half-maximal inhibitory concentration (IC50) was 0.5 µM and the inhibition result was “Dose-dependent effect”.

Turning to `C[C@H](NC(=O)[C@H](CS)NC(=O)[C@H](C)NC(=O)[C@H](C)NC(=O)[C@H](CS)NC(=O)[C@@H](NC(=O)[C@@H](NC(=O)[C@H](C)NC(=O)CNC(=O)[C@H](C)NC(=O)CNC(=O)[C@@H](Nn1cc(CNC(=O)c2ccc3c(c2)C(=O)N(O)C3=O)nn1)[C@@H](C)O)[C@@H](C)O)[C@@H](C)O)C(=O)O` (H-[X4](X2)GAGATTCAACA-OH), the inhibition entry in the experiment with microRNA 21 [4] was “Active”. Take `C[C@H](NC(=O)[C@H](CS)NC(=O)[C@H](C)NC(=O)[C@H](C)NC(=O)[C@H](CS)NC(=O)[C@@H](NC(=O)[C@@H](NC(=O)[C@H](C)NC(=O)CNC(=O)[C@H](C)Nn1cc(CNC(=O)c2ccc3c(c2)C(=O)N(O)C3=O)nn1)[C@@H](C)O)[C@@H](C)O)C(=O)O` (H-[X5](X2)GATTCAACA-OH): the inhibition result in the experiment with microRNA 21 [4] is “Active”. In the case of `C[C@H](NC(=O)[C@H](CS)NC(=O)[C@H](C)NC(=O)[C@H](C)NC(=O)[C@H](CS)NC(=O)[C@@H](NC(=O)[C@@H](NC(=O)[C@H](C)NC(=O)CNC(=O)[C@H](C)NC(=O)CNC(=O)[C@@H](NC(=O)[C@H](C)NC(=O)[C@H](CS)Nn1cc(COc2ccc3c(c2)C(=O)N(O)C(=O)C3)nn1)[C@@H](C)O)[C@@H](C)O)[C@@H](C)O)C(=O)O` (H-[X6]ATGAGATTCAACA-OH), the concentration for half-maximal inhibition (IC50) at microRNA 21 [5] turned out to be 3.3 µM. As for `C[C@H](NC(=O)[C@H](CS)NC(=O)[C@H](C)NC(=O)[C@H](C)NC(=O)[C@H](CS)NC(=O)[C@@H](NC(=O)[C@@H](NC(=O)[C@H](C)NC(=O)CNC(=O)[C@H](C)NC(=O)CNC(=O)[C@@H](NC(=O)[C@H](C)NC(=O)[C@H](CS)Nn1cc(CCCC(=O)NCCOCCOCCNC(=O)c2ccc3c(c2)C(=O)N(O)C3=O)nn1)[C@@H](C)O)[C@@H](C)O)[C@@H](C)O)C(=O)O` (H-[X7](X8)ATGAGATTCAACA-OH), the inhibition result in the experiment on microRNA 21 [6] was “inactive”.

The values above are taken from ChEMBL document CHEMBL4622833, “Bifunctional small molecule-oligonucleotide hybrid as microRNA inhibitor” (Bioorg Med Chem, 2020).
